Values joined by “and” are separate entries in the source; they are usually repeats but may differ in a detail not shown here. Identical values can stand only once.
Assay: xn = mol fraction of the nth substance listed

CCCCN(CCCC)CCCC + CO
viscosity [mPa·s], 101.33 kPa
Settings	298.15 K	303.15 K	308.15 K	313.15 K	318.15 K	323.15 K
x1 = 0.1015	–	0.881	–	0.778	–	0.675
x1 = 0.1093	1.013	–	0.889	–	0.735	–
x1 = 0.1551	–	1.008	–	0.896	–	0.787
x1 = 0.2027	1.21	–	1.07	–	0.919	–
x1 = 0.2166	–	1.106	–	0.994	–	0.895
x1 = 0.256	1.278	–	1.132	–	0.992	–
x1 = 0.2933	–	1.177	–	1.068	–	0.984
x1 = 0.3035	1.319	–	1.169	–	1.036	–
x1 = 0.3493	–	1.208	–	1.101	–	1.027
x1 = 0.362	1.353	–	1.197	–	1.066	–
x1 = 0.404	1.369	–	1.208	–	1.073	–
x1 = 0.4195	–	1.228	–	1.12	–	1.044
x1 = 0.4528	1.383	–	1.215	–	1.07	–
x1 = 0.4998	–	1.235	–	1.118	–	1.03
x1 = 0.5101	1.394	–	1.216	–	1.054	–
x1 = 0.5426	–	1.235	–	1.108	–	1.011
x1 = 0.5541	1.4	–	1.213	–	1.036	–
x1 = 0.604	1.404	–	1.208	–	1.014	–
x1 = 0.6175	–	1.232	–	1.093	–	0.974
x1 = 0.6459	–	1.233	–	1.085	–	0.961
x1 = 0.6609	1.408	–	1.2	–	0.989	–
x1 = 0.6925	1.409	–	1.194	–	0.977	–
x1 = 0.7057	–	1.224	–	1.069	–	0.932
x1 = 0.7264	1.409	–	1.188	–	0.966	–
x1 = 0.763	–	1.217	–	1.052	–	0.911
x1 = 0.8027	1.405	–	1.172	–	0.95	–
x1 = 0.8237	–	1.205	–	1.039	–	0.897
x1 = 0.8877	–	1.19	–	1.022	–	0.885
x1 = 0.8925	1.395	–	1.151	–	0.941	–
x1 = 0.9438	–	1.178	–	1.011	–	0.873

CC(C)(N)CO + O
viscosity
Settings	303.15 K	308.15 K	313.15 K	318.15 K	323.15 K
100 kPa, x1 = 0.01	–	–	0.77 mPa·s	–	–
100 kPa, x1 = 0.022	–	–	0.93 mPa·s	–	–
100 kPa, x1 = 0.048	–	–	1.36 mPa·s	–	–
100 kPa, x1 = 0.12	–	–	3.15 mPa·s	–	–
101 kPa, x1 = 0.0105	0.88 mPa·s	0.79 mPa·s	0.72 mPa·s	0.65 mPa·s	0.52 mPa·s
101 kPa, x1 = 0.0539	1.8 mPa·s	1.59 mPa·s	1.39 mPa·s	1.23 mPa·s	1 mPa·s
101 kPa, x1 = 0.0728	2.48 mPa·s	2.1 mPa·s	1.8 mPa·s	1.56 mPa·s	1.29 mPa·s
101 kPa, x1 = 0.1	3.54 mPa·s	2.74 mPa·s	2.29 mPa·s	1.96 mPa·s	1.7 mPa·s and 1.95 mPa·s
101 kPa, x1 = 0.1571	6.33 mPa·s	4.28 mPa·s	3.11 mPa·s	2.86 mPa·s	2.58 mPa·s
101 kPa, x1 = 0.2	11.06 mPa·s	–	6.65 mPa·s	–	4.14 mPa·s
101 kPa, x1 = 0.2559	13.3 mPa·s	7.93 mPa·s	5.49 mPa·s	5.09 mPa·s	4.51 mPa·s
101 kPa, x1 = 0.3	20.33 mPa·s	–	11.74 mPa·s	–	7.18 mPa·s
101 kPa, x1 = 0.3532	23.78 mPa·s	16.16 mPa·s	12.24 mPa·s	9.26 mPa·s	7.5 mPa·s
101 kPa, x1 = 0.4	32.25 mPa·s	–	18.35 mPa·s	–	11.9 mPa·s
101 kPa, x1 = 0.4546	41.28 mPa·s	27.92 mPa·s	20.29 mPa·s	15.33 mPa·s	10.88 mPa·s
101 kPa, x1 = 0.5	53.64 mPa·s	–	25.49 mPa·s	–	15.29 mPa·s
101 kPa, x1 = 0.5537	56.6 mPa·s	38.93 mPa·s	28.36 mPa·s	20.9 mPa·s	14.59 mPa·s
101 kPa, x1 = 0.6	60.63 mPa·s	–	33.17 mPa·s	–	16.56 mPa·s
101 kPa, x1 = 0.658	71.44 mPa·s	49.28 mPa·s	35.14 mPa·s	25.89 mPa·s	18.35 mPa·s
101 kPa, x1 = 0.7	82.98 mPa·s	–	43.03 mPa·s	–	20.8 mPa·s
101 kPa, x1 = 0.7001	76.44 mPa·s	53.22 mPa·s	37.3 mPa·s	27.62 mPa·s	19.8 mPa·s
101 kPa, x1 = 0.8	91.29 mPa·s	–	46.27 mPa·s	–	22.2 mPa·s
101 kPa, x1 = 0.8108	85.3 mPa·s	57.86 mPa·s	41.82 mPa·s	31.42 mPa·s	22.59 mPa·s
101 kPa, x1 = 0.9	96.39 mPa·s	–	47.42 mPa·s	–	23.4 mPa·s
101 kPa, x1 = 0.9082	88.75 mPa·s	60 mPa·s	43 mPa·s	32.18 mPa·s	22.98 mPa·s
101.33 kPa, x1 = 0.048	1.866 mPa·s	–	1.405 mPa·s	–	1.099 mPa·s
101.33 kPa, x1 = 0.08	3.053 mPa·s	–	2.168 mPa·s	–	1.621 mPa·s

Source: the CheMixHub viscosity set
